Assay results published in patent US20080075788A1, “DIAMMONIUM PHOSPHATE AND OTHER AMMONIUM SALTS AND THEIR USE IN PREVENTING CLOTTING” (priority 2006, published 2008).
Like-named read-outs stand apart in the source and are kept apart here.

How the values were obtained:
whole sheep blood = settings: liquid component added to blood, versus control
Experimental: (§1) Coagulation time of fresh whole blood can be determined with the Lee-White test by visually observing clot formation. Activation of the intrinsic coagulation pathway can be determined by measuring the activated partial thromboplastin time (APTT) as for example, shown in the FIGURE. In this test, the time to formation of a fibrin clot in re-calcified citrated plasma is measured using a coagulation analyzer instrument.

human plasma = settings: for effect on the clotting time of human plasma: APTT test; for APTT Average: average of subjects
Experimental: as §1
Clotting times of plasma samples were measured using the Amelung KC 4 A™ micro coagulation analyzer (Sigma Diagnostics, Germany). A cuvette was placed into a rotating well of the analyzer and a small stainless steel ball was dispensed into the cuvette. 100 μL of Pathromtin SL reagent were dispensed into the cuvette and then 100 μL of human plasma were added. For trials with the solution, 10 μL of water or of a solution dilution were added. After 2 minutes of incubation, 100 μL of CaCl2 were dispensed into each cuvette. The analyzer timer was started immediately and clotting time was recorded when the timer stopped.
On each day, control plasma N (normal) and control plasma P (abnormal/prolonged) were tested for quality control. At least two identical samples (duplicates) were tested simultaneously for each trial. The means and percent differences between duplicates were calculated. If the difference between duplicates was twenty percent or less, that trial's data was used for further analysis.

[1] = listed as diammonium phosphate solution

SMILES: N.N.O=P(O)(O)O [Sample A liquid, diammonium hydrogen-phosphate]
- effect on the Lee-White clotting time of whole sheep blood (whole sheep blood; listed as Sample A liquid component): prolonged
- effect on the Lee-White clotting time of whole sheep blood (whole sheep blood; [1]): delay and/or prevent clotting
- effect on the clotting time of human plasma (human plasma; listed as diammonium hydrogen-phosphate solution): prolongs the clotting time of human plasma
- effect on the clotting time of human plasma (human plasma; [1]): delay and/or prevent clotting
- APTT Average (human plasma; NH4 Conc. 10 mM in the 310 μL total volume): 42.7 s
- Subject APTT (human plasma; NH4 Conc. 10 mM in the 310 μL total volume, subject 1): 49.8 s
- Subject APTT (human plasma; NH4 Conc. 10 mM in the 310 μL total volume, subject 2): 36.5 s
- Subject APTT (human plasma; NH4 Conc. 10 mM in the 310 μL total volume, subject 3): 42.6 s
- Subject APTT (human plasma; NH4 Conc. 10 mM in the 310 μL total volume, subject 4): 42.9 s
- Subject APTT (human plasma; NH4 Conc. 10 mM in the 310 μL total volume, subject 5): 47.9 s
- Subject APTT (human plasma; NH4 Conc. 10 mM in the 310 μL total volume, subject 6): 39.0 s
- Subject APTT (human plasma; NH4 Conc. 10 mM in the 310 μL total volume, subject 7): 32.5 s
- Subject APTT (human plasma; NH4 Conc. 10 mM in the 310 μL total volume, subject 8): 50.9 s
- APTT Average (human plasma; NH4 Conc. 20 mM in the 310 μL total volume): 50.8 s
- Subject APTT (human plasma; NH4 Conc. 20 mM in the 310 μL total volume, subject 1): 64.5 s
- Subject APTT (human plasma; NH4 Conc. 20 mM in the 310 μL total volume, subject 2): 46.3 s
- Subject APTT (human plasma; NH4 Conc. 20 mM in the 310 μL total volume, subject 4): 47.3 s
- Subject APTT (human plasma; NH4 Conc. 20 mM in the 310 μL total volume, subject 5): 62.2 s
- Subject APTT (human plasma; NH4 Conc. 20 mM in the 310 μL total volume, subject 6): 38.0 s
- Subject APTT (human plasma; NH4 Conc. 20 mM in the 310 μL total volume, subject 7): 37.7 s
- Subject APTT (human plasma; NH4 Conc. 20 mM in the 310 μL total volume, subject 8): 59.7 s
- APTT Average (human plasma; NH4 Conc. 30 mM in the 310 μL total volume): 67.6 s
- Subject APTT (human plasma; NH4 Conc. 30 mM in the 310 μL total volume, subject 1): 79.8 s
- Subject APTT (human plasma; NH4 Conc. 30 mM in the 310 μL total volume, subject 2): 52.8 s
- Subject APTT (human plasma; NH4 Conc. 30 mM in the 310 μL total volume, subject 3): 64.2 s
- Subject APTT (human plasma; NH4 Conc. 30 mM in the 310 μL total volume, subject 4): 64.6 s
- Subject APTT (human plasma; NH4 Conc. 30 mM in the 310 μL total volume, subject 5): 86.9 s
- Subject APTT (human plasma; NH4 Conc. 30 mM in the 310 μL total volume, subject 6): 58.5 s
- Subject APTT (human plasma; NH4 Conc. 30 mM in the 310 μL total volume, subject 7): 57.5 s
- Subject APTT (human plasma; NH4 Conc. 30 mM in the 310 μL total volume, subject 8): 76.4 s
- APTT Average (human plasma; NH4 Conc. 40 mM in the 310 μL total volume): 185.2 s
- Subject APTT (human plasma; NH4 Conc. 40 mM in the 310 μL total volume, subject 1): 236.5 s
- Subject APTT (human plasma; NH4 Conc. 40 mM in the 310 μL total volume, subject 4): 154.4 s
- Subject APTT (human plasma; NH4 Conc. 40 mM in the 310 μL total volume, subject 5): 186.2 s
- Subject APTT (human plasma; NH4 Conc. 40 mM in the 310 μL total volume, subject 6): 111.9 s
- Subject APTT (human plasma; NH4 Conc. 40 mM in the 310 μL total volume, subject 7): 166.2 s
- Subject APTT (human plasma; NH4 Conc. 40 mM in the 310 μL total volume, subject 8): 255.8 s
- effect on clotting in whole human blood (whole human blood): delay and/or prevent clotting
